Test systems include HOP-92; MDA-N; SF-268; K562; SNB-19; LOX IMVI; HL-60; UACC-257; SK-OV-3; DLD-1; PC-3; OVCAR-8; SR; SN12C; BT-549; CAKI-1; 786-0; NCI-H522; CCRF-CEM; HCT-116.
Holding throughout (assay): NCI-60 cell line screen, 48 h

Structures are written as SMILES.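 Protocol summary: plate cells (96-well), add compound at 5 concentrations, incubate 48 h, interpolate endpoints linearly. GI50 = concentration required for 50% inhibition of growth.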 Activity calls are given as the source filed them. Rule as the data show it: active = GI50 up to about 1.1 µM and inactive = higher.

These results are taken from ChEMBL document CHEMBL1201862, “PubChem BioAssay data set” (2004).

Consider `COc1cc(/C=C/c2ccc(C)cc2)cc(OC)c1OC`, for which the GI50 in the assay on HOP-92 is 9.33 µM (inactive); in the assay on MDA-N, 0.895 µM (active); with SF-268 it was 5.37 µM (inactive); in the assay with K562, 3.1 µM (inactive); in the assay with SNB-19 it was 4.21 µM (inactive); in the assay on LOX IMVI, 6.14 µM (inactive). Further, the GI50 was 2.97 µM (inactive) in the assay with HL-60; 6.97 µM (inactive) in the assay with UACC-257; 6.84 µM (inactive) with SK-OV-3; 4.06 µM (inactive) in the assay with DLD-1; 2.67 µM (inactive) in the assay with PC-3; 4.43 µM (inactive) in the assay with OVCAR-8. The GI50 with SR is 2.52 µM (inactive); in the assay with SN12C, 4.57 µM (inactive); in the assay with BT-549, 5.68 µM (inactive); with CAKI-1, 5.9 µM (inactive); with 786-0 it was 3.87 µM (inactive); with NCI-H522 it was 2.25 µM (inactive). For the same compound, the figures for the GI50 in the assay on CCRF-CEM and in the assay with HCT-116 were 3.45 µM (inactive) and 3.3 µM (inactive), respectively.
